# Patent US10160747B2, “Compounds and methods for kinase modulation, and indications therefor” (Plexxikon Inc., priority 2016, dated 2018)
# pIC50: −log10 of the molar value.
# Tests used:
# BA/F3-FLT3-ITD + D835Y = molecular target: T1, BA/F3-FLT3-ITD + D835Y (Homo sapiens, UniProt P36888, D835Y, cells depend on it, form not given); assay: Engineered BA/F3 cell growth assay, FLT3 ITD/D835Y; type: cell-based, murine; settings: 3 d growth
# T1 sequence (P36888 with tags, fused parts or gaps INS600HVDFREYEYD/D835Y): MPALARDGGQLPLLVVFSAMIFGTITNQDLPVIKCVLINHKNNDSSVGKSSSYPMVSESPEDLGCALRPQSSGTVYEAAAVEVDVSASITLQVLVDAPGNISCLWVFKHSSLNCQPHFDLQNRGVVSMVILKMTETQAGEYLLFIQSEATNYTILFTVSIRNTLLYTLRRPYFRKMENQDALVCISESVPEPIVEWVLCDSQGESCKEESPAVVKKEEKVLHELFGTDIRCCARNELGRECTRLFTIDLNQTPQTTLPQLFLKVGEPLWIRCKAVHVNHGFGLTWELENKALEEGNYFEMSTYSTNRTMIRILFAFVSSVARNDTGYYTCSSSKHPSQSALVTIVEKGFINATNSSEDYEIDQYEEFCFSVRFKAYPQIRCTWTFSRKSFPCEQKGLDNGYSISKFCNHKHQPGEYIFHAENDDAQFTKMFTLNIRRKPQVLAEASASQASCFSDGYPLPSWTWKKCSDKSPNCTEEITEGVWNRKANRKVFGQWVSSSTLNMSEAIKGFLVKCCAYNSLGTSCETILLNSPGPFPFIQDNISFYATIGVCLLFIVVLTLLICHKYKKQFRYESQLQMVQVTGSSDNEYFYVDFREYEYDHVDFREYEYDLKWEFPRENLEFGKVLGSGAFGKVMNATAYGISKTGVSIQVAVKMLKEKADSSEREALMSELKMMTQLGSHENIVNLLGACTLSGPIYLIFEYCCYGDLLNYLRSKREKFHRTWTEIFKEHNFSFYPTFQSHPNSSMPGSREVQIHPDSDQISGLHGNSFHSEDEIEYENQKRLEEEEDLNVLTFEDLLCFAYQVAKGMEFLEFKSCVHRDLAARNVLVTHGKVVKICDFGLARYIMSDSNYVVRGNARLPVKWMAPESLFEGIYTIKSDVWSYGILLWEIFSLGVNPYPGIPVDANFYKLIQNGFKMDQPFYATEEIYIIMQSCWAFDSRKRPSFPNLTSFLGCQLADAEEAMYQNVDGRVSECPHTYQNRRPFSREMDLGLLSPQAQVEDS
# From the text: (§1) The FLT3 inhibitors may be assessed using the MOLM-14, Acute Myeloid Leukemia cell line that endogenously expresses FLT3 ITD or derivatives of the human FLT3 AML cell line which acquired the D835Y (activation loop) of F691L (gatekeeper) mutation after selection in escalating doses of the FLT3 Inhibitor AC220. FLT3 inhibitors may also be assessed using cells that are engineered to express mutant FLT3. For engineered cells, murine Ba/F3 cells were transfected with full-length FLT3 ITD/D835Y mutations. The parental BA/F3 cells are dependent upon Interleukin-3 (IL-3) for survival, and introduction of the FLT3 constructs rendered these cells dependent upon FLT3 kinase activity when cultured in the absences of IL-3. Engineered BA/F3 cell growth assays can be performed in either the […] of IL-3, to assess the compound inhibition of FLT3 or to detect the presence of off-target activity, respectively. Inhibitors of FLT3 kinase activity reduce or eliminate the FLT3 oncogenic signaling, resulting in reduced cell proliferation. This inhibition is measured as a function of compound concentration to assess IC50 values.
# (§2) Cell lines used in proliferation assays are as follows in Table 2:
# (§3) Cells were seeded at 1×10^4 cells per well of a 96 well cell culture plate in 50 μl of cell culture medium. Compounds were dissolved in DMSO, typically at a concentration of 0.5 mM and were serially diluted 1:3 for a total of eight points and added to the cells to final concentrations of […], 0.0041, 0.0014 and 0.00046 μM in 100 μl cell culture medium (final concentration 0.2% DMSO). […] The cells were incubated at 37° C., 5% CO2 for three days. CellTiter-Glo Buffer (Promega Cell Viability Assay catalog #G7573) and substrate were equilibrated to room temperature, and enzyme/substrate Recombinant Firefly Luciferase/Beetle Luciferin was reconstituted. The cell plates were equilibrated to room temperature for 30 minutes, then lysed by addition of an equivalent volume of the Celltiter-Glo Reagent. The plate was mixed for 10 minutes on a plate shaker to lyse the cells. The plates were read on a Tecan M1000 using Luminescence protocol modified to read 0.1 s per well. The luminescence reading assesses the ATP content, which correlates directly with cell number such that the reading as a function of compound concentration was used to determine the IC50 value.
# The BaF3 assays as developed used to generate the data in Tables 7 and 8 are identical and differ only in minor details in regards to vector design, not biological function. Both introduce the FLT3 gene with MV4-11 based ITD duplications and resistance mutations from an exogenous promoter (MSCV and CMV respectively) in the exact same cell line.
# As a result of the expressed FLT3 protein, the IL3 factor dependent BaF3 cell clones become IL3-factor independent.
# The compounds in Tables 7 and 8 were tested in an identical fashion by incubating such clones in with increasing concentrations. Inhibition of the FLT3 activity by an inhibitor results in factor dependency, which in the absence of IL3 results in cell death in the three day growth assays.
# c-KIT = molecular target: T2, c-KIT (Homo sapiens, UniProt P10721); assay: c-KIT recombinant enzyme kinase assay (AlphaScreen); type: biochemical; settings: 100 ATP, 8 pt
# T2 construct: purchased Millipore 14-559K
# Procedure: In order to determine the effect of compounds on FLT3 catalytic activity, kinase assays using recombinant enzymes and AlphaScreen® technology have been established. The catalytic activity of c-kit activity was also measured to determine selectivity of the compounds. When the kinases are catalytically active, they phosphorylate a biotinylated peptide substrate on tyrosine residues. Using AlphaScreen® technology, the ability of the compounds to affect the catalytic activity of the kinases can be measured quantitatively. The peptide substrate is immobilized by the AlphaScreen® Streptavidin Donor beads and, upon phosphorylation by a tyrosine kinase, can bind to AlphaScreen® Anti-Phosphotyrosine (PY20) Acceptor beads. Upon excitation of these beads with laser light at 680 nm, singlet oxygen is produced. This singlet oxygen is rapidly quenched, unless the AlphaScreen® Anti-Phosphotyrosine (PY20) Acceptor beads are in close proximity, in which case a proximity signal can be measured at 580 nm. In the presence of catalytic activity, there is a very strong proximity signal. Selective kinase inhibitors affect a decrease in this proximity signal through a decrease in tyrosine phosphorylation of the peptide substrate.
# The assay was performed as summarized below.
# Poly (Glu4-Tyr) Peptide, biotin conjugate [Biotin-GG(EEEEY)10EE] (SEQ ID NO: 4)
# Final concentration=30 nM
# Adenosine Triphosphate (ATP)
# Final concentration for IC50 determination=10 μM (FLT3-D835Y or FLT3-ITD) or 100 μM (c-KIT)
# AlphaScreen® Phosphotyrosine (PY20) Assay Kit
# Final concentration=10 μg/mL
# Dilute compounds in DMSO to 20× final concentration.
# Add 1 μL of compound to each well of 384 well reaction plate (Perkin Elmer #6005359).
# Mix enzyme and Poly (Glu4-Tyr) Peptide substrate at 1.33× final concentration in assay buffer.
# Mix ATP at 5× final concentration in assay buffer.
# Add 15 μL enzyme/substrate mixture to the reaction plate.
# Add 4 μL of ATP to the reaction plate.
# Mix Streptavidin Donor beads at 6× final concentration in Stop/Detection buffer.
# Add 5 μL Streptavidin Donor beads to the reaction plate. Centrifuge 1 minute, shake to mix, and incubate at room temperature for 20 minutes.
# Mix Anti-Phosphotyrosine (PY20) Acceptor beads at 6× final concentration in Stop/Detection buffer.
# Add 5 μL Anti-Phosphotyrosine (PY20) beads to the reaction plate.
# Centrifuge 1 minute, shake to mix, and incubate at room temperature for 60 minutes.
# Read plate on Wallac EnVision™ 2103 Multilabel Reader.
# [1] = test system: MOLM-14 F691L (endogenous FLT3 ITD and transfected FLT3 F691L); assay: MOLM-14 F691L cell proliferation assay (CellTiter-Glo); type: cell-based; settings: Homo sapiens, MOLM-14, 72 h; 3 d growth, GMean
# From the text: as §1, §2, §3
# [2] = test system: MOLM-14 D835Y (endogenous FLT3 ITD and transfected FLT3 D835Y); assay: MOLM-14 D835Y cell proliferation assay (CellTiter-Glo); type: cell-based; settings: Homo sapiens, MOLM-14, 72 h; 3 d growth, GMean
# From the text: as §1, §2, §3
# T2 sequence (P10721 26-976): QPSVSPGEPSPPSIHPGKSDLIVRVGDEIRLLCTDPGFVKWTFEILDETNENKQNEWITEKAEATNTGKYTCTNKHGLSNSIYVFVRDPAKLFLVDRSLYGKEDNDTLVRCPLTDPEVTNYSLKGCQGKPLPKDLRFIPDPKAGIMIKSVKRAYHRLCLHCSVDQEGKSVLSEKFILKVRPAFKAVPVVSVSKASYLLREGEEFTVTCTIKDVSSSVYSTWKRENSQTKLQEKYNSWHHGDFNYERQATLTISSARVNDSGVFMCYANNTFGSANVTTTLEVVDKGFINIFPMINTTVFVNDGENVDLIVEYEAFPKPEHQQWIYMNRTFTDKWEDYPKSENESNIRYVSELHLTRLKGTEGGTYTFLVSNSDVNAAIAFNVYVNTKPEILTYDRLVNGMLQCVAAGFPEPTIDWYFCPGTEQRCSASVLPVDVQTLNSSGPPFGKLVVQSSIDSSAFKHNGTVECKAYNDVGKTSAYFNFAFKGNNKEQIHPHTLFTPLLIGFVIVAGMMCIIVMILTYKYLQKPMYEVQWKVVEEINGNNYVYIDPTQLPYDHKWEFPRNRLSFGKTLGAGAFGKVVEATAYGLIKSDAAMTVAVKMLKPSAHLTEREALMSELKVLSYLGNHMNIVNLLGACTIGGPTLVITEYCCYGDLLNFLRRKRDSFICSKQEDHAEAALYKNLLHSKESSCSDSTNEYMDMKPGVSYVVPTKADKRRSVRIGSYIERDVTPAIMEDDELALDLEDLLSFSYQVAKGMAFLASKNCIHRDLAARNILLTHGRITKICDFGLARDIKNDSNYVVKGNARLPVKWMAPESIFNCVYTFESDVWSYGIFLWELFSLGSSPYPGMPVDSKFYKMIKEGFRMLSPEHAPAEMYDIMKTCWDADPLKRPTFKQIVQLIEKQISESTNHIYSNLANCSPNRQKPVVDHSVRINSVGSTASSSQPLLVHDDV
Compound,GI50 (BA/F3-FLT3-ITD + D835Y) [µM],pIC50 (c-KIT),pIC50 [1],pIC50 [2]
"CCc1cncc(NC(=O)Cc2ccc(-c3cnc(Nc4cnn(C(F)F)c4)nc3)cc2)c1 [Compound P-0223, 2-[4-[2-[[1-(difluoromethyl)pyrazol-4-yl]amino]pyrimidin-5-yl]phenyl]-N-(5-ethyl-3-pyridyl)acetamide]",0.0001 to 10,–,5.00 to 10.00,5.00 to 10.00
"O=C(Cc1ccc(-c2cnc(Nc3cnn(C(F)F)c3)nc2)cc1)Nc1cncc(C2CC2)c1 [Compound P-0224, N-(5-cyclopropyl-3-pyridyl)-2-[4-[2-[[1-(difluoromethyl)pyrazol-4-yl]amino]pyrimidin-5-yl]phenyl]acetamide]",0.0001 to 10,–,5.00 to 10.00,5.00 to 10.00
"Cc1ncc(NC(=O)Cc2ccc(-c3cnc(Nc4cn[nH]c4)nc3)c(F)c2)cc1C(F)(F)F [Compound P-0225, 2-[3-fluoro-4-[2-(1H-pyrazol-4-ylamino)pyrimidin-5-yl]phenyl]-N-[6-methyl-5-(trifluoromethyl)-3-pyridyl]acetamide]",0.0001 to 10,–,5.00 to 10.00,5.00 to 10.00
"COc1ncc(NC(=O)Cc2cc(F)c(-c3cnc(Nc4cn[nH]c4)nc3)cc2F)cc1C(F)(F)F [Compound P-0226, 2-[2,5-difluoro-4-[2-(1H-pyrazol-4-ylamino)pyrimidin-5-yl]phenyl]-N-[6-methoxy-5-(trifluoromethyl)-3-pyridyl]acetamide]",0.0001 to 10,–,5.00 to 10.00,5.00 to 10.00
"COCCn1cc(Nc2ncc(-c3ccc(CC(=O)Nc4cnc(C)c(C(F)(F)F)c4)c(F)c3)cn2)cn1 [Compound P-0264, 2-[2-fluoro-4-[2-[[1-(2-methoxyethyl)pyrazol-4-yl]amino]pyrimidin-5-yl]phenyl]-N-[6-methyl-5-(trifluoromethyl)-3-pyridyl]acetamide]",0.0001 to 10,–,5.00 to 10.00,5.00 to 10.00

# Results, then the molecule that gave them:
GI50 (BA/F3-FLT3-ITD + D835Y) [µM],pIC50 (c-KIT),pIC50 [1],pIC50 [2],Compound
0.0001 to 10,5.00 to 10.00,5.00 to 10.00,5.00 to 10.00,"CCC(=O)c1c[nH]c2ncc(-c3ccc(CC(=O)Nc4cnc(OC)c(C(F)(F)F)c4)c(F)c3)cc12 [Compound P-0049, 2-[2-fluoro-4-(3-propanoyl-1H-pyrrolo[2,3-b]pyridin-5-yl)phenyl]-N-[6-methoxy-5-(trifluoromethyl)-3-pyridyl]acetamide]"
0.0001 to 10,–,5.00 to 10.00,5.00 to 10.00,"COc1cc(-c2cc3cc(-c4ccc(CC(=O)Nc5ccnc(C(F)(F)F)c5)nc4)cnc3[nH]2)ccn1 [Compound P-0187, 2-[5-[2-(2-methoxy-4-pyridyl)-1H-pyrrolo[2,3-b]pyridin-5-yl]-2-pyridyl]-N-[2-(trifluoromethyl)-4-pyridyl]acetamide]"
0.0001 to 10,–,5.00 to 10.00,5.00 to 10.00,"COc1cc(-c2cc3cc(-c4cc(F)c(CC(=O)Nc5cc(C(F)(F)F)ccn5)cc4F)cnc3[nH]2)ccn1 [Compound P-0189, 2-[2,5-difluoro-4-[2-(2-methoxy-4-pyridyl)-1H-pyrrolo[2,3-b]pyridin-5-yl]phenyl]-N-[4-(trifluoromethyl)-2-pyridyl]acetamide]"
0.0001 to 10,–,5.00 to 10.00,5.00 to 10.00,"O=C(Cc1cc(F)c(-c2cnc3[nH]c(-c4ccnc(N5CCOCC5)c4)cc3c2)cc1F)Nc1cc(C(F)(F)F)ccn1 [Compound P-0190, 2-[2,5-difluoro-4-[2-(2-morpholino-4-pyridyl)-1H-pyrrolo[2,3-b]pyridin-5-yl]phenyl]-N-[4-(trifluoromethyl)-2-pyridyl]acetamide]"
0.0001 to 10,–,5.00 to 10.00,5.00 to 10.00,"COc1ncc(NC(=O)Cc2ccc(-c3cnc4[nH]c(-c5ccc(N6CCOCC6)nc5)cc4c3)c(F)c2)cc1C(F)(F)F [Compound P-0193, 2-[3-fluoro-4-[2-(6-morpholino-3-pyridyl)-1H-pyrrolo[2,3-b]pyridin-5-yl]phenyl]-N-[6-methoxy-5-(trifluoromethyl)-3-pyridyl]acetamide]"
